Data: patent US4020150A (priority 1974, dated 1977)

Experiments:
[1] = in water; cited from earlier work
[2] = tested on: Yoshidia sarcoma and other tumors; conditions: Connors et al.; cited from earlier work
[3] = cited from earlier work
[4] = tested on: tumors; conditions: by itself; cited from earlier work
[5] = tested on: P. berghei; conditions: high doses of PABA, protocol of Rollo
[6] = tested on: Walker tumor; conditions: cited from earlier work
[7] = tested on: Walker tumor; conditions: rat, in vivo; cited from earlier work
[8] = tested on: burn wounds; conditions: burn therapy; cited from earlier work

Compound: Nc1ccc(S(=O)(=O)Nc2nccs2)cc1 [sulfathiazole]
- pKa [1]: 7.1
- selective concentration in other transplanted animal tumors [2]: do not concentrate selectively in these tumors

Compound: Nc1ccc(S(=O)(=O)Nc2ncccn2)cc1 [sulfadiazine]
- solubility of free acid ([3]; free acid): insoluble as a free acid
- solubility when ionized ([3]; ionized): very soluble when ionized
- anti-tumor activity [4]: not an anti-tumor agent
- inhibition of activity by PABA [5]: significantly inhibited by PABA

Compound: N[C@@H](Cc1ccc(N(CCCl)CCCl)cc1)C(=O)O [melphalan]
- effectiveness against the tumor [6]: very effective against the tumor
- ratio of concentration between the Walker tumor and the liver [7]: 1:5

Compound: Nc1ccc(S(=O)(=O)Nc2cnccn2)cc1 [sulfapyrazine]
- selective deposition/concentration in Walker tumor [7]: selectively deposited in the tumor regions
- pKa [1]: 6.0

Compound: Nc1ccc(S(=O)(=O)Nc2ncccn2)cc1 [sodium sulfadiazine]
- reaction with body fluids / consumption [8]: would be used up rapidly and none would be left after a few days
- solubility ([3]; water-soluble): water-soluble
